# ChEMBL document CHEMBL1129526, “Angular furoquinolinones, psoralen analogs: novel antiproliferative agents for skin diseases. Synthesis, biological activity, mechanism of action, and computer-aided studies” (J Med Chem, 1996)
# Assays:
# Ehrlich [1] = assay: Compound was tested for the inhibition of RNA synthesis in Ehrlich cells by UV -A Irradiation relative to furoquinolinone; format: functional, Mus musculus
# [2] = Partition Coefficient in n-octanol / water medium; format: physicochemical
# [3] = Surviving fraction was evaluated at concentration 2 uM in T2 phage; format: functional
# Ehrlich [4] = assay: Compound was tested for the inhibition of DNA synthesis in Ehrlich cells by incubation in the dark relative to furoquinolinone; format: functional, Mus musculus
# Bos taurus = species on record: Bos taurus; assay: Association constant of binding of compound with calf thymus DNA was determined by using equilibrium dialysis.; conditions: cattle
# Ehrlich [5] = assay: Compound was tested for the inhibition of DNA synthesis in Ehrlich cells by incubation in the dark.; format: functional; conditions: Mus musculus, read-out: ID50 (the source's name)
# Ehrlich [6] = assay: Compound was tested for the inhibition of DNA synthesis in Ehrlich cells by UV -A Irradiation relative to furoquinolinone; format: functional, Mus musculus
# Ehrlich [7] = assay: Compound was tested for the inhibition of RNA synthesis in Ehrlich cells by incubation in the dark.; format: functional; conditions: Mus musculus, read-out: ID50 (the source's name)
# Ehrlich [8] = assay: Compound was tested for the inhibition of RNA synthesis in Ehrlich cells by UV -A Irradiation; format: functional, Mus musculus
# Ehrlich [9] = assay: Compound was tested for the inhibition of RNA synthesis in Ehrlich cells by incubation in the dark relative to furoquinolinone; format: functional, Mus musculus
# Ehrlich [10] = assay: Compound was tested for the inhibition of DNA synthesis in Ehrlich cells by UV -A Irradiation; format: functional, Mus musculus
# [11] = Solubility of compound in water; format: physicochemical; conditions: for solubility: water, read-out: S
# [12] = Surviving fraction was evaluated at concentration 4 uM in T2 phage; format: functional
smiles,measurement,setting,value
Cc1cc2c(o1)c(C)cc1c(C)cc(=O)n(C)c12,Relative activity,Ehrlich [1],461
same,Partition coefficient,[2],163.5
same,Surviving fraction,[3],0.69
same,Relative activity,Ehrlich [4],1
same,K,Bos taurus,11700 M⁻¹
same,IC50,Ehrlich [5],2.33 µM
same,Relative activity,Ehrlich [6],77.6
same,IC50,Ehrlich [7],1.35 µM
same,Du,Ehrlich [8],0.803
same,Relative activity,Ehrlich [9],1
same,Du,Ehrlich [10],0.9
same,solubility,[11],4700 µg/mL
Cc1cc2c(o1)c(C)cc1c(C)cc(=O)oc12,Relative activity,Ehrlich [1],16.83
same,Partition coefficient,[2],1897
same,Surviving fraction,[3],0.6
same,K,Bos taurus,10100 M⁻¹
same,Relative activity,Ehrlich [6],4.14
same,Du,Ehrlich [8],0.0303
same,Du,Ehrlich [10],0.0481
same,solubility,[11],1460 µg/mL
COc1c2occc2cc2ccc(=O)oc12 [METHOXSALEN],Relative activity,Ehrlich [1],1
same,Surviving fraction,[3],0.8
same,K,Bos taurus,736 M⁻¹
same,Relative activity,Ehrlich [6],1
same,Du,Ehrlich [8],0.0018
same,Du,Ehrlich [10],0.0116
same,S,[11]; buffer,23 mg/mL
Cc1oc2c(C)cc3c(C)cc(=O)[nH]c3c2c1C,Relative activity,Ehrlich [1],582
same,Relative activity,Ehrlich [4],0.0926
same,IC50,Ehrlich [5],25.2 µM
same,Relative activity,Ehrlich [6],102.6
same,IC50,Ehrlich [7],5.27 µM
same,Du,Ehrlich [8],1.048
same,Relative activity,Ehrlich [9],0.256
same,Surviving fraction,[12],0.7
same,Du,Ehrlich [10],1.19
